Reference: article PMC8501045, “Addressing MRSA infection and antibacterial resistance with peptoid polymers” (Nature Communications, 2021)

Columns and labels:
S. aureus ATCC6538 = assay: Bacterial killing kinetics; assay type: cell-based, Staphylococcus aureus; details: after 4 h of treatment
[1] = test system: S. aureus USA300 biofilm formation; assay: Inhibition study on biofilm formation; assay type: cell-based, Staphylococcus aureus
Procedure: The plate was incubated at 37 °C for 24 h, and then the culture medium was removed, washed with PBS once, followed by adding 100 µL MTT solution (0.5 mg/mL) into the corresponding well. After further incubation at 37 °C for 4 h in the dark, the MTT solution was removed. An aliquot of 100 μL DMSO was added to each well to solubilize the purple solid and then the OD value was collected at 570 nm on a microplate reader. Wells containing inoculum and without antibacterial agents were used as the positive control; wells containing only MH medium were used as the blank. The percentage of surviving cells within biofilm was calculated from4 %cellviability=A570polymer-A570blank/A570control-A570blank×100
The test was independently repeated at least three times.

S. epidermidis 9397 [2] = assay: Mouse peritonitis model, survival test, S. epidermidis; assay type: in vivo; details: i.p. 20 mg/kg, 7 days
Procedure: (§1) This infection model was conducted according to the previously reported method with slight modification. Female ICR mice (21–24 g) were used for MRSA-infected peritonitis model. Mice were infected by intraperitoneal administration of 0.2 mL of S. aureus USA300 LAC in saline (7.5 × 10^8 CFU/mL) supplemented with 5% mucin. […] Once the infected mice died, peritoneal lavage was performed by injecting 3.0 mL of saline into the peritoneal cavity and massaging the abdomen. Subsequently, the abdomen was opened and peritoneal fluid was recovered from the abdominal cavity for analysis. Blood samples were collected through cardiac puncture for analysis of CFU/mL. Then, different organs including the heart, liver, spleen, lung, and kidney were removed and homogenized in 0.1% TX-100 solution. The homogenate was serially diluted for plating on LB agar. After incubation at 37 °C for 14 h, the number of colonies on the plate was counted to calculate the bacteria burden. Surviving mice were euthanized at 48 h after infection. The blood, peritoneal fluid, and organs were collected for the determination of bacterial colonies. […] For the pretreatment group, mice were sacrificed and tissues were harvested to determine the CFU at 1 h post infection. […]

S. haemolyticus 0202 = assay: Mouse peritonitis model, survival test, S. haemolyticus; assay type: in vivo; details: i.p. 20 mg/kg, 7 days
Procedure: as §1

S. aureus USA300 LAC = assay: Mouse peritonitis model, CFU in organs, blood and IP fluid, MRSA; assay type: in vivo; details: Figure 6d
Procedure: (§2) This infection model was conducted according to the previously reported method with slight modification. Female ICR mice (21–24 g) were used for MRSA-infected peritonitis model. Mice were infected by intraperitoneal administration of 0.2 mL of S. aureus USA300 LAC in saline (7.5 × 10^8 CFU/mL) supplemented with 5% mucin. […] Once the infected mice died, peritoneal lavage was performed by injecting 3.0 mL of saline into the peritoneal cavity and massaging the abdomen. Subsequently, the abdomen was opened and peritoneal fluid was recovered from the abdominal cavity for analysis. Blood samples were collected through cardiac puncture for analysis of CFU/mL. Then, different organs including the heart, liver, spleen, lung, and kidney were removed and homogenized in 0.1% TX-100 solution. The homogenate was serially diluted for plating on LB agar. After incubation at 37 °C for 14 h, the number of colonies on the plate was counted to calculate the bacteria burden. Surviving mice were euthanized at 48 h after infection. The blood, peritoneal fluid, and organs were collected for the determination of bacterial colonies. […] For the pretreatment group, mice were sacrificed and tissues were harvested to determine the CFU at 1 h post infection.

S. epidermidis 9397 [3] = assay: Mouse peritonitis model, CFU in organs, blood and IP fluid, S. epidermidis; assay type: in vivo; details: Figure 6e
Procedure: as §2
For experiments of S. epidermidis and S. haemolyticus infections, female ICR mice (22–24 g) were rendered neutropenic by treatment with 150 and 100 mg/kg of cyclophosphamide intraperitoneally at 4 days and 1 day prior to infection. Mice were infected by intraperitoneal administration of 0.2 mL of S. epidermidis 9397 (5.1 × 10^9 CFU/mL) or S. haemolyticus 0202 (2.6 × 10^9 CFU/mL) in saline. Other experiment conditions were similar to those in MRSA peritonitis model.

## CN[C@H](CC(C)C)C(=O)N[C@H]1C(=O)N[C@@H](CC(N)=O)C(=O)N[C@H]2C(=O)N[C@H]3C(=O)N[C@H](C(=O)N[C@H](C(=O)O)c4cc(O)cc(O)c4-c4cc3ccc4O)[C@H](O)c3ccc(c(Cl)c3)Oc3cc2cc(c3O[C@@H]2O[C@H](CO)[C@@H](O)[C@H](O)[C@H]2O[C@H]2C[C@](C)(N)[C@H](O)[C@H](C)O2)Oc2ccc(cc2Cl)[C@H]1O [Vancomycin]
S. aureus ATCC6538
  reduction of the bacteria: about 0.3 log
[1]
  concentration required to inhibit the formation of S. aureus biofilm: 2 × MIC
S. epidermidis 9397 [2]
  mice survived: 4/6
S. haemolyticus 0202
  survival of the mice: 100%
S. aureus USA300 LAC; individual mouse 1 of 6
  Log10(CFU/mL IP fluid): 3.724 Log10(CFU/mL)
  Log10(CFU/mL Blood): 1.824 Log10(CFU/mL)
  Log10(CFU/g Heart): 0 Log10(CFU/g)
  Log10(CFU/g Kidney): 3.222 Log10(CFU/g)
  Log10(CFU/g Liver): 3.125 Log10(CFU/g)
  Log10(CFU/g Spleen): 3.426 Log10(CFU/g)
S. aureus USA300 LAC; individual mouse 2 of 6
  Log10(CFU/mL IP fluid): 3.912 Log10(CFU/mL)
  Log10(CFU/mL Blood): 3.213 Log10(CFU/mL)
  Log10(CFU/g Heart): 2.523 Log10(CFU/g)
  Log10(CFU/g Kidney): 4.951 Log10(CFU/g)
  Log10(CFU/g Liver): 4.501 Log10(CFU/g)
  Log10(CFU/g Lung): 4.23 Log10(CFU/g)
  Log10(CFU/g Spleen): 4.689 Log10(CFU/g)
S. aureus USA300 LAC; individual mouse 3 of 6
  Log10(CFU/mL IP fluid): 2.845 Log10(CFU/mL)
  Log10(CFU/mL Blood): 3.885 Log10(CFU/mL)
  Log10(CFU/g Heart): 2.824 Log10(CFU/g)
  Log10(CFU/g Kidney): 4.845 Log10(CFU/g)
  Log10(CFU/g Liver): 3.477 Log10(CFU/g)
  Log10(CFU/g Lung): 3.125 Log10(CFU/g)
  Log10(CFU/g Spleen): 3.885 Log10(CFU/g)
S. aureus USA300 LAC; individual mouse 4 of 6
  Log10(CFU/mL IP fluid): 3.255 Log10(CFU/mL)
  Log10(CFU/mL Blood): 1.523 Log10(CFU/mL)
  Log10(CFU/g Heart): 2.824 Log10(CFU/g)
  Log10(CFU/g Kidney): 2.824 Log10(CFU/g)
  Log10(CFU/g Liver): 4.398 Log10(CFU/g)
  Log10(CFU/g Spleen): 4.404 Log10(CFU/g)
S. aureus USA300 LAC; individual mouse 5 of 6
  Log10(CFU/mL IP fluid): 3.595 Log10(CFU/mL)
  Log10(CFU/mL Blood): 2.222 Log10(CFU/mL)
  Log10(CFU/g Heart): 3 Log10(CFU/g)
  Log10(CFU/g Kidney): 2.523 Log10(CFU/g)
  Log10(CFU/g Liver): 3.699 Log10(CFU/g)
  Log10(CFU/g Lung): 3 Log10(CFU/g)
  Log10(CFU/g Spleen): 4.222 Log10(CFU/g)
S. aureus USA300 LAC; individual mouse 6 of 6
  Log10(CFU/mL IP fluid): 1.824 Log10(CFU/mL)
  Log10(CFU/mL Blood): 0 Log10(CFU/mL)
  Log10(CFU/g Heart): 0 Log10(CFU/g)
  Log10(CFU/g Kidney): 4.247 Log10(CFU/g)
  Log10(CFU/g Liver): 3.699 Log10(CFU/g)
  Log10(CFU/g Lung): 3 Log10(CFU/g)
  Log10(CFU/g Spleen): 4.204 Log10(CFU/g)
S. epidermidis 9397 [3]; individual mouse 1 of 6
  Log10(CFU/mL IP fluid): 6.824 Log10(CFU/mL)
  Log10(CFU/mL Blood): 4.311 Log10(CFU/mL)
  Log10(CFU/g Heart): 5.45 Log10(CFU/g)
  Log10(CFU/g Kidney): 6.633 Log10(CFU/g)
  Log10(CFU/g Liver): 7.125 Log10(CFU/g)
  Log10(CFU/g Lung): 6.477 Log10(CFU/g)
  Log10(CFU/g Spleen): 7.954 Log10(CFU/g)
S. epidermidis 9397 [3]; individual mouse 2 of 6
  Log10(CFU/mL IP fluid): 5.982 Log10(CFU/mL)
  Log10(CFU/mL Blood): 4.38 Log10(CFU/mL)
  Log10(CFU/g Heart): 5.747 Log10(CFU/g)
  Log10(CFU/g Kidney): 6.452 Log10(CFU/g)
  Log10(CFU/g Liver): 7.288 Log10(CFU/g)
  Log10(CFU/g Lung): 5.954 Log10(CFU/g)
  Log10(CFU/g Spleen): 7.349 Log10(CFU/g)
S. epidermidis 9397 [3]; individual mouse 3 of 6
  Log10(CFU/mL IP fluid): 4.068 Log10(CFU/mL)
  Log10(CFU/mL Blood): 2.602 Log10(CFU/mL)
  Log10(CFU/g Heart): 5.222 Log10(CFU/g)
  Log10(CFU/g Kidney): 4.81 Log10(CFU/g)
  Log10(CFU/g Liver): 4.887 Log10(CFU/g)
  Log10(CFU/g Lung): 6.211 Log10(CFU/g)
  Log10(CFU/g Spleen): 7.368 Log10(CFU/g)
S. epidermidis 9397 [3]; individual mouse 4 of 6
  Log10(CFU/mL IP fluid): 3.222 Log10(CFU/mL)
  Log10(CFU/mL Blood): 2.824 Log10(CFU/mL)
  Log10(CFU/g Heart): 5.315 Log10(CFU/g)
  Log10(CFU/g Kidney): 4.699 Log10(CFU/g)
  Log10(CFU/g Liver): 4.845 Log10(CFU/g)
  Log10(CFU/g Lung): 5.171 Log10(CFU/g)
  Log10(CFU/g Spleen): 5.666 Log10(CFU/g)
S. epidermidis 9397 [3]; individual mouse 5 of 6
  Log10(CFU/mL IP fluid): 3.067 Log10(CFU/mL)
  Log10(CFU/mL Blood): 0 Log10(CFU/mL)
  Log10(CFU/g Heart): 4.186 Log10(CFU/g)
  Log10(CFU/g Kidney): 4.119 Log10(CFU/g)
  Log10(CFU/g Liver): 3.985 Log10(CFU/g)
  Log10(CFU/g Lung): 3.564 Log10(CFU/g)
  Log10(CFU/g Spleen): 5.977 Log10(CFU/g)
S. epidermidis 9397 [3]; individual mouse 6 of 6
  Log10(CFU/mL IP fluid): 4.206 Log10(CFU/mL)
  Log10(CFU/mL Blood): 2.301 Log10(CFU/mL)
  Log10(CFU/g Heart): 4.735 Log10(CFU/g)
  Log10(CFU/g Kidney): 4.752 Log10(CFU/g)
  Log10(CFU/g Liver): 5.176 Log10(CFU/g)
  Log10(CFU/g Lung): 4.434 Log10(CFU/g)
  Log10(CFU/g Spleen): 6.041 Log10(CFU/g)
